Converted amounts (≈) assume the structure as drawn. The source made the active and inactive calls. No cut-off for these calls is given here.
Assays:
[1] = Hepatic intrinsic clearance in human hepatocytes measured per 10^6 cells at 1 uM measured upto 120 mins by LC-MS/MS analysis; format: ADME, cell-based, Hepatocyte; details: read-out: CLH
[2] = Clearance in CD1 mouse at 1 mg/kg, iv administered as bolus dose; format: ADME, organism-based; details: in vivo
[3] = Intrinsic clearance in human liver microsomes measured upto 60 mins by LC-MS/MS analysis; format: ADME, Microsome; details: read-out: CLH
CYP3A4 [4] = molecular target: T1, CYP3A4 (Homo sapiens, UniProt P08684); test: Induction of human CYP3A4 assessed as fold change at 1 uM by CYP450 induction assay; format: ADME; details: read-out: FC
[5] = Initial plasma concentration in CD1 mouse at 1 mg/kg, iv administered as bolus dose; format: ADME, organism-based
[6] = Inhibition of terbium-labelled Mcl-1 (unknown origin)/Bim BH3 peptide (H3N-(C/Cy5Mal)-WIAQELRRIGDEFN-OH) (unknown origin) interaction assessed as displacement of Cy5-labeled Bim BH3 peptide by TR-HTRF assay
[7] = Thermodynamic (equilibrium) solubility of the compound measured after 3 days agitation in pH 7 buffer by LC-MS/MS analysis; format: physicochemical; details: time 3 day, read-out: Therm_solubility
MOLM-13 [8] = test: In vivo inhibition of Mcl-1 in human MOLM-13 cells sc implanted in NSG mouse assessed as disruption of Mcl-1/Bim complex in tumor at 10 mg/kg, po; format: functional, organism-based
[9] = Fraction unbound in mouse plasma at 5 uM incubated for 4.5 hrs by rapid equilibrium dialysis; format: ADME, cell-free
[10] = Half life in CD1 mouse at 1 mg/kg, iv administered as bolus dose; format: ADME, organism-based; details: in vivo
[11] = AUClast in CD1 mouse at 5 mg/kg, po administered as bolus dose; format: ADME, organism-based; parameters: dose 5 mg/kg, route po; details: in vivo
Cytochrome P450 2C19 = Cytochrome P450 2C19 (Homo sapiens, UniProt P33261); test: Inhibition of human CYP2C19 assessed as fluorescent metabolites by CYP450 inhibition assay; format: ADME
[12] = Cardiotoxicity risk in human iPSC-CM assessed as calcium transients at 0.3 uM by CTCM assay; format: toxicity, cell-based
MOLM-13 [13] = test: In vivo inhibition of Mcl-1 in human MOLM-13 cells sc implanted in NSG mouse assessed as disruption of Mcl-1/Bak complex in tumor at 10 mg/kg, po; format: functional, organism-based
[14] = Toxicity in NSG mouse xenografted with human MOLM-13 cells at 10 mg/kg, po; format: organism-based; details: in vivo
CYP1A2 = molecular target: T2, CYP1A2 (Homo sapiens, UniProt P05177); test: Induction of human CYP1A2 assessed as fold change at 1 uM by CYP450 induction assay; format: ADME; details: read-out: FC
T2 sequence (P05177 whole entry): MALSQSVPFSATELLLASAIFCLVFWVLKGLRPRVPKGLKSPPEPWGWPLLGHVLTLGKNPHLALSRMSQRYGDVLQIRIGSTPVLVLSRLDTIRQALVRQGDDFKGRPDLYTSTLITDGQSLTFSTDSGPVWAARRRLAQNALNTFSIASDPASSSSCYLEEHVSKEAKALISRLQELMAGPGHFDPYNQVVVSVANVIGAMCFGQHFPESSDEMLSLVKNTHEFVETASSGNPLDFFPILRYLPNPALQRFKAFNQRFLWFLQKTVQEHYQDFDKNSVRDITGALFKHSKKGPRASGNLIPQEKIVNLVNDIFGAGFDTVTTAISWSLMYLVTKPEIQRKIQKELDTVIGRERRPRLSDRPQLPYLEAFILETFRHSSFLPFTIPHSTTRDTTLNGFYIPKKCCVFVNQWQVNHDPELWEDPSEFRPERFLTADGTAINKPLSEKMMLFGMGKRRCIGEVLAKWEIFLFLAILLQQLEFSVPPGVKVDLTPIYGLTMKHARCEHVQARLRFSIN

Cytochrome P450 1A2 = molecular target: T3, Cytochrome P450 1A2 (Homo sapiens, UniProt P05177); test: Inhibition of human CYP1A2 assessed as fluorescent metabolites by CYP450 inhibition assay; format: ADME
T3 sequence (P05177 whole entry): T2 sequence (P05177 whole entry)

[15] = Fraction absorbed in CD1 mouse at 5 mg/kg, po administered as bolus dose; format: ADME, organism-based; details: in vivo, read-out: Fabs
Cytochrome P450 2C8 = molecular target: T4, Cytochrome P450 2C8 (Homo sapiens, UniProt P10632); test: Inhibition of human CYP2C8 assessed as fluorescent metabolites by CYP450 inhibition assay; format: ADME
T4 sequence (P10632 whole entry): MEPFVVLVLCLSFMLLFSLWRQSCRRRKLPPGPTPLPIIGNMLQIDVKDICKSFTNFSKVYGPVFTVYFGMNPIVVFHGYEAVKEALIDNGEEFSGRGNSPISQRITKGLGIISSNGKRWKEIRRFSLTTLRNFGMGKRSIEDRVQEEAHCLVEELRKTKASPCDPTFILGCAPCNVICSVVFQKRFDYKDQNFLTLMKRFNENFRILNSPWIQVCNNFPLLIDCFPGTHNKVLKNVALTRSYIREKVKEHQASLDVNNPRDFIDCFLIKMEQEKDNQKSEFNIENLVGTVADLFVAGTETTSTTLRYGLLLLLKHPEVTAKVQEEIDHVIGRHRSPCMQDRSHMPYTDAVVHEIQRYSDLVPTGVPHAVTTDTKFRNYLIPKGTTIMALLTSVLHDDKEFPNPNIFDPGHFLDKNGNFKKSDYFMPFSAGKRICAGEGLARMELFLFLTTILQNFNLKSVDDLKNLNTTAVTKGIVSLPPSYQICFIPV

[16] = Metabolic stability in human hepatocytes assessed as half life at 1 uM measured by LC-MS/MS analysis; format: ADME, cell-based, Hepatocyte
[17] = Lipophilicity, CHI logD of compound at pH 7.4 by UPLC-TOF analysis; format: physicochemical; details: buffer
[18] = Volume of distribution at steady state in CD1 mouse at 1 mg/kg, iv administered as bolus dose; format: ADME, organism-based; details: in vivo, read-out: Vdss
[19] = Tmax in CD1 mouse at 5 mg/kg, po administered as bolus dose; format: ADME, organism-based; details: in vivo
[20] = Oral bioavailability in CD1 mouse at 5 mg/kg administered as bolus dose; format: ADME, organism-based; details: in vivo
Cytochrome P450 2D6 = Cytochrome P450 2D6 (Homo sapiens, UniProt P10635); test: Inhibition of human CYP2D6 assessed as fluorescent metabolites by CYP450 inhibition assay; format: ADME
[21] = Hepatic intrinsic clearance in Swiss CD-1 mouse hepatocytes measured per 10^6 cells at 1 uM measured upto 120 mins by LC-MS/MS analysis; format: ADME, cell-based, Hepatocyte; details: read-out: CLH
[22] = Cardiotoxicity risk in human iPSC-CM assessed as calcium transients at 3 uM by CTCM assay; format: toxicity, cell-based
[23] = Fraction unbound in human plasma at 5 uM incubated for 4.5 hrs by rapid equilibrium dialysis; format: ADME, cell-free
MOLP-8 = test: Induction apoptosis in human MOLP8 cells assessed as cell killing measured after 2 hrs by Caspase-Glo 3/7 Assay; format: functional, cell-based; details: MOLP-8, 2 h
Cytochrome P450 2C9 = Cytochrome P450 2C9 (Homo sapiens, UniProt P11712); test: Inhibition of human CYP2C9 assessed as fluorescent metabolites by CYP450 inhibition assay; format: ADME
[24] = Thermodynamic (equilibrium) solubility of the compound measured after 3 days agitation in pH 2 buffer by LC-MS/MS analysis; format: physicochemical; details: time 3 day, read-out: Therm_solubility
[25] = Cardiotoxicity risk in human iPSC-CM assessed as calcium transients at 1 uM by CTCM assay; format: toxicity, cell-based
[26] = Cmax in CD1 mouse at 5 mg/kg, po administered as bolus dose; format: ADME, organism-based; parameters: dose 5 mg/kg, route po; details: in vivo
[27] = Metabolic stability in Swiss CD-1 mouse hepatocytes assessed as half life at 1 uM measured by LC-MS/MS analysis; format: ADME, cell-based, Hepatocyte
[28] = Intrinsic clearance in mouse liver microsomes measured upto 60 mins by LC-MS/MS analysis; format: ADME, Microsome; details: read-out: CLH
[29] = Cardiotoxicity risk in human iPSC-CM assessed as calcium transients at 0.1 uM by CTCM assay; format: toxicity, cell-based
CYP3A4 [30] = molecular target: T1, CYP3A4; test: Induction of human CYP3A4 assessed as fold change at 10 uM by CYP450 induction assay; format: ADME; details: read-out: FC

T1 sequence (P08684 whole entry): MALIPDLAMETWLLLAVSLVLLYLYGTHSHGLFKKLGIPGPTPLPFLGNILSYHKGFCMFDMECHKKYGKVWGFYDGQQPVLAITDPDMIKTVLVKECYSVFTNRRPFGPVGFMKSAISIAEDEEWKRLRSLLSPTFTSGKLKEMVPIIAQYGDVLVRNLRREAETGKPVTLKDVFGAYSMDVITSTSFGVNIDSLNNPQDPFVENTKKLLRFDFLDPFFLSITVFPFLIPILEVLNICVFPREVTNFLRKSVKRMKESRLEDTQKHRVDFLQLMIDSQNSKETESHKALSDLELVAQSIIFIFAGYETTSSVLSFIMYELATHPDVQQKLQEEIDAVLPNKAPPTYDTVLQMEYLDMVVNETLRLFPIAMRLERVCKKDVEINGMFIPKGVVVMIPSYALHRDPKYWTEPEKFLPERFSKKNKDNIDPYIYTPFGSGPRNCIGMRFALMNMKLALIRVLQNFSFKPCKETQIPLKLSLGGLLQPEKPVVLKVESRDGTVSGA
Chain of Cytochrome P450 2C9 (P11712 whole entry): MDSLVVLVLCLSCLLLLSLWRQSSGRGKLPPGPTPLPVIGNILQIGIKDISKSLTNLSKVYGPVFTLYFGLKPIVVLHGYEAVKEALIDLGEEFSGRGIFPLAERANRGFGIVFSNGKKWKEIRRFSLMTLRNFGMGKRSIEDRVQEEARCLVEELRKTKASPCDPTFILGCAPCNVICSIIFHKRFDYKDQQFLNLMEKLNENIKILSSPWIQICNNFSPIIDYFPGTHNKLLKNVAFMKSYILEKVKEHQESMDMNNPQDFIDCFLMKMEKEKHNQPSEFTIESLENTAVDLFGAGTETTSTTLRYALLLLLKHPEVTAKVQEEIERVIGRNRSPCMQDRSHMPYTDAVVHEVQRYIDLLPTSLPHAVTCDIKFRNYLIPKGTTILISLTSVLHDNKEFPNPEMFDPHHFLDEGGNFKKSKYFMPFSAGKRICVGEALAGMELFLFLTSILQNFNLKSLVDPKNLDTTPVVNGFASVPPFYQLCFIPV
Chain of Cytochrome P450 2D6 (P10635 whole entry): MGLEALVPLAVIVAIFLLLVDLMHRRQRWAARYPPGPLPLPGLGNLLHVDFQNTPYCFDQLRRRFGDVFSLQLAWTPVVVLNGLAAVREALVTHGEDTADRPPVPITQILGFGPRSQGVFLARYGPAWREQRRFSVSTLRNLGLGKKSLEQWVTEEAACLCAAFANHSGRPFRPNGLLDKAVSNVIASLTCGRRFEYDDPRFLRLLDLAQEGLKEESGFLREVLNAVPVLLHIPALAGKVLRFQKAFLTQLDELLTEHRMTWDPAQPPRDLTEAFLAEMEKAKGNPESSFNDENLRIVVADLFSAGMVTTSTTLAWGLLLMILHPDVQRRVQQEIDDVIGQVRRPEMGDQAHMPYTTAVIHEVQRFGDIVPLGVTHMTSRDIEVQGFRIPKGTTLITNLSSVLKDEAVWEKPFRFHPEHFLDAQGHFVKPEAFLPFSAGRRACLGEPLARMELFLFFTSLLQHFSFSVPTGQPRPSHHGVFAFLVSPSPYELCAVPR
Chain of Cytochrome P450 2C19 (P33261 whole entry): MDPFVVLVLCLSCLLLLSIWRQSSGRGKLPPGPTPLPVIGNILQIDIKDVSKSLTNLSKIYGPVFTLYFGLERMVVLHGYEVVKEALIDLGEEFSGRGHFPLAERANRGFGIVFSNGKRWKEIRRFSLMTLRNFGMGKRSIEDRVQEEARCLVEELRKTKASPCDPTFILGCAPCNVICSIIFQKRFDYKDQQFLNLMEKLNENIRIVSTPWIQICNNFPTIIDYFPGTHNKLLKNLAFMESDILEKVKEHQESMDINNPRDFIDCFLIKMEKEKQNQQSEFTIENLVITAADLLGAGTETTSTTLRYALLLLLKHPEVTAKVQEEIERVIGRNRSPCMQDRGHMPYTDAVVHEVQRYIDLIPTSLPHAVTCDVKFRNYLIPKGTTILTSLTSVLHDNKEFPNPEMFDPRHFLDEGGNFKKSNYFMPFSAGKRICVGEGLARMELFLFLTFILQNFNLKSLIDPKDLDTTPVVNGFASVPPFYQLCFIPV

`COc1nn(C)cc1C(=O)N[S@@]1(=O)=NC(=O)c2ccc3c(c2)N(C[C@@H]2CCO[C@H]2[C@@H](OC)/C(F)=C/C[C@H](C)C1)C[C@@]1(CCCc2cc(Cl)ccc21)CO3` showed a hepatocyte CLint at 1 µM [1] of 1.99 µL/min/1e6 cells, a clearance [2] of 25 mL/min/kg and a microsomal CLint [3] of under 7.7 µL/min/mg. It also gave a fold induction at 1 µM (CYP3A4 [4]) of 1.3, a C0 [5] of 574 ng/mL and a Ki [6] of 0.011 nM. The solubility thermodynamic at 72 h [7] was 520 µM (≈ 401 µg/mL), the inhibition (MOLM-13 [8]) was “Active” and the Fu [9] was 0.02%. For the same molecule, the half-life [10] was 1.81 h, the AUC(0-t) [11] was 2520 ng·h/mL and the “inhibition (INH)” value (Cytochrome P450 2C19) was “Not Active”. For the same molecule, the Activity [12] was “Non-Toxic”, the inhibition (MOLM-13 [13]) was “Active” and the Activity [14] was “Non-Toxic”. The fold induction at 1 µM (CYP1A2) was 0.95, the “inhibition (INH)” value (Cytochrome P450 1A2) was “Not Active” and the Fa [15] was 99%. It also gave an IC50 (Cytochrome P450 2C8) of 5010 nM, a t1/2 [16] of 5.8 h and a chromatographic logD [17] of 3. The Vd [18] was 3.01 L/kg, the Tmax [19] was 2.33 h and the bioavailability [20] was 78%. The “inhibition (INH)” value (Cytochrome P450 2D6) was “Not Active”, the hepatocyte CLint at 1 µM [21] was under 1.24 µL/min/1e6 cells and the Activity [22] was “Non-Toxic”. For the same molecule, the Fu [23] was 0.05%, the AC50 (MOLP-8) was 44 nM and the “inhibition (INH)” value (Cytochrome P450 2C9) was “Not Active”. For the same molecule, the solubility thermodynamic at 72 h [24] was under 0.1 µM, the Activity [25] was “Non-Toxic” and the Cmax [26] was 578 ng/mL. The half-life at 1 µM [27] was over 9.33 h, the microsomal CLint [28] was 15 µL/min/mg and the Activity [29] was “Non-Toxic”. The fold induction at 10 µM (CYP3A4 [30]) was 4.4.
